This is an account of results in publication PMC7852560 (Neuropsychopharmacology, 2020).

A word on the half-life: it is the time in which the quantity being followed falls by half. A higher half-life goes with slow loss. The term microsomal CLint denotes the rate of metabolic loss divided by the concentration. Low values mean slow turnover, high ones rapid turnover.

SMILES strings stand for the structures. Values joined by “and” are separate entries in the source; they are usually repeats but may differ in a detail not shown here. Equal entries are not always repeated. Where two headings read alike, the source gives them in different places.

One data set is described as follows: in vitro. It counts as in vitro ADME, human. The note with it: pH 7.4. Here is the method: Microsomal stability assays were conducted by Cyprotex Ltd (Macclesfield, UK).
The study of drug stability in the presence of liver microsomes is accepted as a valuable model for permitting rapid prediction of in vivo drug stability (see Kerns & Di, 2008). Microsomal stability studies were performed by Cyprotex Ltd (Macclesfield, UK). […] Microsomes (final protein concentration 0.5 mg/mL), 0.1 M phosphate buffer pH 7.4, and test compound (final concentration 3 μM; diluted from 10 mM stock solution to give a final DMSO concentration of 0.25%) were incubated at 37°C prior to the addition of NADPH (final concentration 1 mM) to initiate the reaction with a final incubation volume of 25 µL. A control incubation was included for each compound tested, where 0.1 M phosphate buffer pH 7.4 was added instead of NADPH. The control compounds testosterone and 7-hydroxycoumarin were included in each experiment and all incubations were performed singularly for each compound. […] Following protein precipitation, the sample supernatants were combined in cassettes of up to 4 compounds and analyzed using standard LC-MS/MS conditions. From a plot of the natural logarithm of the peak area ratio (i.e., the ratio of compound peak area: internal standard peak area) against time, the gradient of the line was determined. Subsequently, half-life and intrinsic clearance were calculated using the equations below: […]

Data set [1] deals with T1, CB1R (Homo sapiens, UniProt P21554). In words: cell-based.
Another data set has as its target T2, CB2 (Homo sapiens, UniProt P34972).
T2 construct: Eurofins Cerep
Description: SafetyScreen44 panel: CB2. The class given is binding. Conditions: 1 µM. Here is the method: (§1) The screen assesses the selectivity of the compound on a diverse panel of targets that includes GPCRs, drug transporters, ion channels, nuclear receptors, kinases, and other non-kinase enzymes. The screen employs radioligand binding or enzyme assays for these 44 targets.
(§2) For receptor assays, binding was calculated as percent inhibition of the binding of a radioactively labeled ligand specific for each target. For enzyme assays, the inhibition effect was calculated as percent inhibition of control enzyme activity. Tests were performed in duplicate, and results are averages of those two tests. See https://www.eurofinsdiscoveryservices.com.

In another data set the target is Dopamine D2 (Homo sapiens, UniProt P14416). In words: SafetyScreen44 panel: Dopamine D2. It counts as binding. The note with it: 1 µM. As for the experimental part: as §1, §2
In another data set the test system is NMDA. In words: SafetyScreen44 panel: NMDA. The note with it: 1 µM. It counts as binding. From the text: See https://www.eurofinsdiscoveryservices.com.
In another data set the target is T3, 5HT3 (Homo sapiens, UniProt P46098).
T3 construct: Eurofins Cerep
T3 sequence (P46098 24-478): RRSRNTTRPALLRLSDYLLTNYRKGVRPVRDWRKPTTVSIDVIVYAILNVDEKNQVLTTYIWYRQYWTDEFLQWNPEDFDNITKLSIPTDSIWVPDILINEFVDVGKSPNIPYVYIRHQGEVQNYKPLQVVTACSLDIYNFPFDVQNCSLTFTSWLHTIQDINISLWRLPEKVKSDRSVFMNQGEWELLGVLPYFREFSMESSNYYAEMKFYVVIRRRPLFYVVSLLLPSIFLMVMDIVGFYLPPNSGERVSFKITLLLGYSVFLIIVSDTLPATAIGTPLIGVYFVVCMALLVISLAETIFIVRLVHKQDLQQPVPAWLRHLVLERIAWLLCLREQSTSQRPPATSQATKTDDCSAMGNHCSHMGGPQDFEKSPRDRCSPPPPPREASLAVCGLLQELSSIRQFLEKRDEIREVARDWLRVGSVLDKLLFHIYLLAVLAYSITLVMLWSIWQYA
Description: SafetyScreen44 panel: 5HT3. The class given is binding. Conditions: 1 µM. As for the experimental part: as §1, §2

A further data set has as its system Male C57Bl/6J mice. In words: Cannabinoid-induced tetrad. It counts as in vivo. Conditions: 10 mg/kg i.p., 30 min prior. As for the experimental part:
Male C57Bl/6J mice (PD > 70) were tested on the cannabinoid-induced tetrad, as previously described.
(i.p.) before testing. The tetrad was performed (1) catalepsy, (2) locomotion, (3) temperature, and (4) analgesia. Catalepsy: time (s) spent immobile with front paws on a plastic rod (1.5cm diameter), at a height of 4.5-cm from the table, before adjusting abnormal posture (either front paws being removed from the bar, or back paws climbing onto bar). Locomotion: horizontal activity (cm) was immediately measured in an open field test, following catalepsy, for 15-min. in 1-min bins. Temperature: rectal temperature (°C) was measured immediately following open-field testing, using a thermometer with rectal probe (Labcorp, Fisher, Waltham, MA). Analgesia: latency (s) to withdraw tail from hot water bath (52 °C), to assess tail-flick antinociception, was completed immediately following temperature readings.

A further data set relates to DATKO mice. Description: Open-field test in DATKO mice. Conditions: 10 mg/kg i.p., 30 min before test.
The test system of a further data set is GluN1KD mice. Description: Open-field test in GluN1KD mice. Conditions: ABM300 10 mg/kg, OLA 1 mg/kg i.p., 30 min before test.
For data set [2], the target named is T1, CB1R. In words: cell-based. Also on record: beta-galactosidase enzyme fragment (EFC; ProLink by own knowledge). The note with it: in the presence of the EC80 of CP55,940 (10 nM).
Description: The PathHunter® β-Arrestin assay was conducted by Eurofins Pharma Discovery Services (further details can be found at https://www.eurofinsdiscoveryservices.com).
The PathHunter® β-Arrestin assay was conducted by Eurofins Pharma Discovery Services. The assay monitors the activation of a GPCR in a homogenous, non-imaging assay format using a technology developed by DiscoverX called Enzyme Fragment Complementation (EFC) with β-galactosidase (β-Gal) as the functional reporter. Vehicle concentration was 1% DMSO in these assays.

T1 sequence (P21554 whole entry): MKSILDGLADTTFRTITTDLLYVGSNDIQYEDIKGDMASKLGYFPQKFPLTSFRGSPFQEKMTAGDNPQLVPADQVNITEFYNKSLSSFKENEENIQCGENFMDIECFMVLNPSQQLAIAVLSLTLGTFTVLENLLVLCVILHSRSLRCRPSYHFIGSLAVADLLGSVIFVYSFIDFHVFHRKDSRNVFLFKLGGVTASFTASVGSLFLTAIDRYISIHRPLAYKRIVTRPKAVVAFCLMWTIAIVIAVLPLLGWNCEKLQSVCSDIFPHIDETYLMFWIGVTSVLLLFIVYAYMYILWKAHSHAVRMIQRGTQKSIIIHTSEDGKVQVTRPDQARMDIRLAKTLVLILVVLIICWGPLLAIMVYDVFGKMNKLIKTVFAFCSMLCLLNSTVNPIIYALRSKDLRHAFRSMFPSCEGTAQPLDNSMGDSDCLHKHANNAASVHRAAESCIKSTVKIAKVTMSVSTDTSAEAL
Dopamine D2, sequence (P14416 other isoform, or with tags, fused parts or gaps): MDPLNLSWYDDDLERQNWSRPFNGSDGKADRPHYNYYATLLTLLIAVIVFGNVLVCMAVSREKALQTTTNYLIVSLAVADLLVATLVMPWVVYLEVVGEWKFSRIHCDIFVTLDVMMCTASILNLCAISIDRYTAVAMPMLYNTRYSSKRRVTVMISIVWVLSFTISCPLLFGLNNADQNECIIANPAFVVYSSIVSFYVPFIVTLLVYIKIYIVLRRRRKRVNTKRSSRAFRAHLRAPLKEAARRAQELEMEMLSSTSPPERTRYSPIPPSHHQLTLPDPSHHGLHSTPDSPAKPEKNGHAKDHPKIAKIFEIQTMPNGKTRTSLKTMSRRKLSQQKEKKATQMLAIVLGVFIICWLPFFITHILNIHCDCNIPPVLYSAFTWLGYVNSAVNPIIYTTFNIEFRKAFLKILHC
T2 sequence (P34972 whole entry): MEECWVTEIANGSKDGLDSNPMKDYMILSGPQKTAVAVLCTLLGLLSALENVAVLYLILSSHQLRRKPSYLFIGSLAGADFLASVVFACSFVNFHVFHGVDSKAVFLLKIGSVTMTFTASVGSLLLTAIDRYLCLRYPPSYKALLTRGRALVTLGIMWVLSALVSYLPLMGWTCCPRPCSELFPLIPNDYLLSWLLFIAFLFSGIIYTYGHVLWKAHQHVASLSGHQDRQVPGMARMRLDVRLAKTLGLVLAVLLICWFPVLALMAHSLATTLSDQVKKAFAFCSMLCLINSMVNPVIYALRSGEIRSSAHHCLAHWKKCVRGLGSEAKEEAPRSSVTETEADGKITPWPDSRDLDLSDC

As for `CCc1c(-c2nnc(Nc3ccccc3)o2)[nH]c2ccc(Cl)cc12` [ABM300, 5-(5-chloro-3-ethyl-1H-indol-2-yl)-N-phenyl-1,3,4-oxadiazol-2-amine], in “in vitro” (microsomes, human liver microsomal preparations), the half-life at 3 µM was 1.82 h. Further, the microsomal CLint at 3 µM in “in vitro” (human liver microsomes) came to 12.7 ± 3.4 µL/min/mg. The IC50 at CB1R [1] (read-out: IC50, reduction in ERK1/2 phosphorylation) came out at 47 nM. Also, on CB1R [1] (read-out: pIC50, reduction in ERK1/2 phosphorylation (converted)), the IC50 is 41.7 nM. At CB2, the “binding to CB2” value is “did not display any significant binding”. Further, the “binding to Dopamine D2” value at Dopamine D2 is “did not display any significant binding”. In addition, the “binding to NMDA” value with NMDA was “did not display any significant binding”. Moreover, the “binding to 5HT3” value on 5HT3 is recorded as “did not display any significant binding”. In the data set on Male C57Bl/6J mice, the “tetrad: catalepsy-induced immobility time” value was “no effect”, the “tetrad: percent inhibition of locomotor activity (15 min)” value is “no effect”, the “tetrad: rectal temperature” value is “no effect” and the “tetrad: tail withdrawal (% MPE)” value was “no effect”. In the data set with DATKO mice, the “dysregulated hyperactivity (total distance traveled)” value is on record as “normalized”, the stereotypic movements entry is on record as “normalized” and the vertical exploration entry is “normalized”. In the data set with GluN1KD mice, the exaggerated stereotypic activity entry is “significantly reduced”, the “novelty-induced hyperactivity (distance traveled)” value is “decreases” and the “rearing behavior (vertical exploration)” value was “significantly reduced”. Besides, the IC50 on CB1R [2] (read-out: IC50, reduction in β-arrestin recruitment) is 49.7 nM and 50 nM. Moreover, the IC50 at CB1R [2] (read-out: pIC50, reduction in β-arrestin recruitment (converted)) is 49 nM.
